# Source: ChEMBL document CHEMBL1148989, “Meroterpenoid MAPKAP (MK2) inhibitors isolated from the indonesian marine sponge Acanthodendrilla sp” (J Nat Prod, 2004)
# Molecular target: MAP kinase-activated protein kinase 2 (Homo sapiens, UniProt P49137)
# Experiment: Inhibition of MK2
# MAP kinase-activated protein kinase 2, sequence (P49137 whole entry): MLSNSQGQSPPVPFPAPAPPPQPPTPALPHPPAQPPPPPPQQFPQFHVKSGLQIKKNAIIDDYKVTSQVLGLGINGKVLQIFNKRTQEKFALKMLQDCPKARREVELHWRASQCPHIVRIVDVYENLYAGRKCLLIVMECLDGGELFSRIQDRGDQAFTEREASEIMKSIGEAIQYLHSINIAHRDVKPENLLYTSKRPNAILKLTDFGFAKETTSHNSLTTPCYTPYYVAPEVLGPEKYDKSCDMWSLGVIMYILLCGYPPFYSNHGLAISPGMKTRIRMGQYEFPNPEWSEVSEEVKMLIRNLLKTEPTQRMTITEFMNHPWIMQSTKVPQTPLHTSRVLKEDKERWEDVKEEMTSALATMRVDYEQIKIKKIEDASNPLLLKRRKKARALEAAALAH
row,IC50,Structure (SMILES)
1,20 µM,CC1=CC[C@H]2[C@@](C)(CC[C@H]3C(C)(C)CCC[C@]23C)[C@@H]1Cc1cc(C(=O)O)ccc1O
2,9.6 µM,CC1=C(CC/C(C)=C/Cc2cc(C(=O)O)ccc2O)[C@@]2(C)CCCC(C)(C)[C@@H]2CC1
